Results published in patent publication US20080280953A1, “Agents Used for the Treatment of Seeds” (Bayer Cropscience AG, priority 2004, published 2008).

Test system: black bean aphid (Aphis fabae)
Assay: Aphis fabae test (seed application), Example D1
Assay type: in vivo
Conditions: 90 g per unit (100,000 seeds), sugar beet seed
Procedure: To prepare a suitable active compound preparation 1 part by weight of the active compound is mixed with the given amount of solvent and emulsifier and the concentrate is diluted to the desired concentration with water.
Sugar beet seed (Beta vulgaris) is treated with the active compound preparation and sown into the earth. After ca. 4 weeks the beet plants are infected with the black bean aphid (Aphis fabae).
After the desired time the death rate in % is determined. Here 100% means that all aphids were killed; 0% means that no aphids were killed.

O=C1C=C(N(Cc2ccc(Cl)nc2)C2CC2)CO1 [Compound 88]
death rate after 7 days: 100%
